Source: patent publication US20090054312A1, “SMIPs: Small molecule inhibitors of p27 depletion in cancers and other proliferative diseases” (priority 2007, published 2009)
Counter-ions that a name gives are not always drawn. Like-named read-outs stand apart in the source and are kept apart here. One block for each molecule: values may come before it.

Experiments:
[1] = test system: p27 levels in LNCaP-S14 cells; test: p27 immunofluorescence screening assay in LNCaP-S14 cells; settings: for accumulation of p27, fold-induction normalized to DMSO: IF assay, 16 hours
LNCaP-S14 cells = test: MTT viability assay, LNCaP-S14; assay type: cell-based, human; settings: 72 h, Table 4, read-out: IC50 (concentration of 50% growth inhibition), LNCaP-S14
Description: We next explored the effects of SMIPs on cell viability. S14 and IMR90 cells were exposed to increasing concentrations of SMIPs for 72 h and scored for viability using the MTT assay. IC50 values (concentration of 50% growth inhibition) were calculated (Table 4).
We next compared IC50 values for cytotoxicity of SMIP004 in S14 compared with parental LNCaP cells. […] We are testing whether SMIP-induced cytotoxicity is due to apoptosis.

[2] = test system: IMR90 normal human fibroblasts; test: MTT viability assay, IMR90; assay type: cell-based; settings: Table 4, read-out: IC50 (concentration of 50% growth inhibition), IMR90
Description: We next explored the effects of SMIPs on cell viability. […] IC50 values (concentration of 50% growth inhibition) were calculated (Table 4).

[3] = Table 1, compounds showing SMIP activity in the secondary screen, p27-positive cells, cell line not given
[4] = Table 1, standard deviations from plate mean, cell line not given
[5] = […], p27-positive cells, cell line not given
[6] = SMIP concentration 40 (maximum dose)

Molecule: CC(=O)Nc1ccc(S(=O)(=O)N(Cc2ccc3c(c2)CCO3)C2CC2)cc1 [N-(4-{[cyclopropyl(2,3-dihydro-1-benzofuran-5-ylmethyl)amino]sulfonyl}phenyl)acetamide]
% positive [1, 3]: 14.84% | Z score [1, 4]: 7.4706

Molecule: O=C(Nc1ccccc1)Nc1ccc(SCc2nc(OCC(F)(F)F)cc(OCC(F)(F)F)n2)cc1 [N-[4-[[[4,6-bis(2,2,2-trifluoroethoxy)pyrimidin-2-yl]methyl]thio]phenyl]-N′′-phenylurea]
% positive [1, 3]: 39.26% | Z score [1, 4]: 25.1654

Molecule: O=C(Nc1ccc([N+](=O)[O-])cc1Cl)c1cc(Cl)ccc1O [Niclosamide, reference compound]
% positive [1, 3]: 42.32% | Z score [1, 4]: 27.3834

Molecule: CO[C@@H]1C[C@@H](C[C@H]2CC[C@H](C)[C@H]([C@@H](C)C(=O)O)O2)O[C@]2(O[C@](C)([C@H]3CC[C@@](C)([C@@H]4O[C@@H]([C@H]5O[C@@](O)(CO)[C@H](C)C[C@@H]5C)C[C@@H]4C)O3)C[C@H]2C)[C@@H]1C [Nigericin sodium, reference compound]
% positive [1, 3]: 35.05% | Z score [1, 4]: 22.1153

Molecule: C1CCC(C(CC2CCCCN2)C2CCCCC2)CC1.O=C(O)/C=C\C(=O)O (centres unmarked) [Perhexilline maleate, reference compound]
Z score [1, 4]: −0.0837 | % positive [1, 5]: 4.42%

Molecule: OCCN1CCN(CCCN2c3ccccc3Sc3ccc(Cl)cc32)CC1 [Perphenazine, reference compound]
% positive [1, 3]: 12.07% | Z score [1, 4]: 5.4640

Molecule: COc1ccc(C[C@H](N)C(=O)N[C@H]2[C@@H](O)[C@H](n3cnc4c(N(C)C)ncnc43)O[C@@H]2CO)cc1 [Puromycin hydrochloride, reference compound]
% positive [1, 3]: 63.07% | Z score [1, 4]: 42.4217

Molecule: [O-][n+]1ccccc1[S-].[O-][n+]1ccccc1[S-].[Zn+2] [Pyrithione zinc, reference compound]
% positive [1]: 10.31% | Z score [1]: 4.1877

Molecule: CCN(CC)CCCC(C)Nc1c2ccc(Cl)cc2nc2ccc(OC)cc12 (centres unmarked) [Quinacrine hydrochloride, reference compound]
% positive [1, 3]: 36.17% | Z score [1, 4]: 22.9232

IC50 (LNCaP-S14 cells): 15.9 µM
Molecule: COc1ccc(S(=O)(=O)N(Cc2ccc(Cl)cc2)Cc2ccc3cc[nH]c3c2)cc1 [SMIP003]
IC50 ([2]; 72 h): 65.4 µM | accumulation of p27, fold-induction normalized to DMSO ([1]; SMIP concentration 1): 0.38 fold | accumulation of p27, fold-induction normalized to DMSO ([1]; SMIP concentration 5): 0.54 fold | accumulation of p27, fold-induction normalized to DMSO ([1]; SMIP concentration 10): 0.99 fold | accumulation of p27, fold-induction normalized to DMSO ([1]; SMIP concentration 20): 1.83 fold | accumulation of p27, fold-induction normalized to DMSO [1, 6]: 3.18 fold

Molecule: O=C(Nc1ccccc1)Nc1ccc(SCc2nc(OCC(F)(F)F)cc(OCC(F)(F)F)n2)cc1 [SMIP012]
IC50 (LNCaP-S14 cells): 4.59 µM | IC50 ([2]; 72 h): ~10 µM | accumulation of p27, fold-induction normalized to DMSO ([1]; SMIP concentration 1): 0.42 fold | accumulation of p27, fold-induction normalized to DMSO ([1]; SMIP concentration 5): 2.17 fold | accumulation of p27, fold-induction normalized to DMSO ([1]; SMIP concentration 10): 1.95 fold | accumulation of p27, fold-induction normalized to DMSO ([1]; SMIP concentration 20): 3.30 fold | accumulation of p27, fold-induction normalized to DMSO [1, 6]: 2.43 fold

IC50 (LNCaP-S14 cells): 18.2 µM
Molecule: COc1ccc(S(=O)(=O)Nc2ccc3[nH]c(C(C)(C)C)cc3c2)cc1 [SMIP013]
IC50 ([2]; 72 h): ~20 µM | accumulation of p27, fold-induction normalized to DMSO ([1]; SMIP concentration 1): −0.33 fold | accumulation of p27, fold-induction normalized to DMSO ([1]; SMIP concentration 5): −0.10 fold | accumulation of p27, fold-induction normalized to DMSO ([1]; SMIP concentration 10): 0.39 fold | accumulation of p27, fold-induction normalized to DMSO ([1]; SMIP concentration 20): 2.74 fold | accumulation of p27, fold-induction normalized to DMSO [1, 6]: 3.72 fold

IC50 (LNCaP-S14 cells): 13 µM
Molecule: CCC(=O)N(Cc1cccc(Cl)c1)c1ccc2[nH]c(C(C)(C)C)cc2c1 [SMIP015]
IC50 ([2]; 72 h): ~20 µM | accumulation of p27, fold-induction normalized to DMSO ([1]; SMIP concentration 1): 0.08 fold | accumulation of p27, fold-induction normalized to DMSO ([1]; SMIP concentration 5): 0.35 fold | accumulation of p27, fold-induction normalized to DMSO ([1]; SMIP concentration 10): 0.43 fold | accumulation of p27, fold-induction normalized to DMSO ([1]; SMIP concentration 20): 4.75 fold | accumulation of p27, fold-induction normalized to DMSO [1, 6]: 4.25 fold

IC50 (LNCaP-S14 cells): 14.6 µM
Molecule: COc1ccc(S(=O)(=O)Nc2cccc3cc(C(=O)NCc4ccc(Cl)cc4)[nH]c23)cc1 [SMIP016]
IC50 ([2]; 72 h): 4.41 µM | accumulation of p27, fold-induction normalized to DMSO ([1]; SMIP concentration 1): 0.94 fold | accumulation of p27, fold-induction normalized to DMSO ([1]; SMIP concentration 5): 1.81 fold | accumulation of p27, fold-induction normalized to DMSO ([1]; SMIP concentration 10): 1.73 fold | accumulation of p27, fold-induction normalized to DMSO ([1]; SMIP concentration 20): 2.62 fold | accumulation of p27, fold-induction normalized to DMSO [1, 6]: 2.44 fold

IC50 (LNCaP-S14 cells): > 40 µM
Molecule: O=C(CSC1=NNC(c2ccccn2)S1)c1cccc(F)c1 (centres unmarked) [SMIP018]
IC50 ([2]; 72 h): > 40 µM | accumulation of p27, fold-induction normalized to DMSO ([1]; SMIP concentration 1): 0.26 fold | accumulation of p27, fold-induction normalized to DMSO ([1]; SMIP concentration 5): 0.71 fold | accumulation of p27, fold-induction normalized to DMSO ([1]; SMIP concentration 10): 0.67 fold | accumulation of p27, fold-induction normalized to DMSO ([1]; SMIP concentration 20): 0.92 fold | accumulation of p27, fold-induction normalized to DMSO [1, 6]: 3.07 fold

Molecule: CC[C@@H](C(=O)[C@@H](C)[C@@H](O)[C@H](C)[C@@H]1O[C@@H]([C@@H](CC)C(=O)O)CC[C@@H]1C)[C@H]1O[C@]2(C=C[C@@H](O)[C@]3(CC[C@@](C)([C@H]4CC[C@](O)(CC)[C@H](C)O4)O3)O2)[C@H](C)C[C@@H]1C [Salinomycin, sodium, reference compound]
Z score [1, 4]: 37.4159 | % positive [1, 5]: 56.17%

Molecule: C[n+]1cc2c3c(ccc2c2ccc4cc5c(cc4c21)OCO5)OCO3 [Sanguinarine nitrate, reference compound]
Z score [1, 4]: 11.4629 | % positive [1, 5]: 20.35%

Molecule: O=C1C=C2C=C[C@@H]3C[C@@]2(O1)[C@H]1CCCCN31 [Securinine, reference compound]
Z score [1, 4]: 7.6953 | % positive [1, 5]: 15.15%

Molecule: O=C(CCCN1CCC2(CC1)C(=O)NCN2c1ccccc1)c1ccc(F)cc1 [Spiperone, reference compound]
% positive [1, 3]: 32.90% | Z score [1, 4]: 20.5550

Molecule: Clc1ccc(CSC(Cn2ccnc2)c2ccc(Cl)cc2Cl)cc1 (centres unmarked) [Sulconazole nitrate, reference compound]
% positive [1, 3]: 19.81% | Z score [1, 4]: 11.0719

Molecule: C/C=C(/C)C(=O)O[C@H]1C(C)=C2[C@H]([C@@H]1OC(=O)CCCCCCC)[C@@](C)(OC(C)=O)C[C@H](OC(=O)CCC)[C@@]1(O)[C@H]2OC(=O)[C@@]1(C)O [Thapsigargin, reference compound]
IC50 (LNCaP-S14 cells; Homo sapiens): 0.0078 µM | IC50 ([2]; Homo sapiens, IMR-90, 72 h): 0.0311 µM

Molecule: C=C(NC(=O)C(=C)NC(=O)c1csc(C2=N[C@@H]3c4csc(n4)[C@H]4NC(=O)c5csc(n5)[C@H]([C@](C)(O)[C@@H](C)O)NC(=O)[C@H]5CSC(=N5)/C(=C/C)NC(=O)[C@H]([C@@H](C)O)NC(=O)c5csc(n5)[C@]3(CC2)NC(=O)[C@H](C)NC(=O)C(=C)NC(=O)[C@H](C)NC(=O)[C@H]([C@@H](C)CC)N[C@@H]2C=Cc3c([C@H](C)O)cc(nc3[C@H]2O)C(=O)O[C@@H]4C)n1)C(N)=O [Thiostrepton, reference compound]
% positive [1, 3]: 15.09% | Z score [1, 4]: 7.6485

Molecule: CCCCCCCCCCCCCCCC[N+](C)(C)CCN(Cc1ccc(OC)cc1)c1ncccn1 [Thonzonium, reference compound]
% positive [1, 3]: 9.65% | Z score [1, 4]: 3.7078

Molecule: Clofilium tosylate [reference compound]
% positive [1, 3]: 53.49% | Z score [1, 4]: 35.4749

Molecule: Oligomycin A [Oligomycin A (mix of A, B, C), reference compound]
% positive [1, 3]: 26.65% | Z score [1, 4]: 16.0298
